In patent US11149017B2, “Solid state forms of apalutamide” (WATSON LABORATORIES INC., priority 2016, dated 2021):

Experiments:
[1] = Solubility Study (aqueous buffers, dissolution apparatus, LC analysis); type: physicochemical; settings: compared to other crystalline forms of Apalutamide, e.g. crystalline form B
Method: Solubility of Apalutamide was checked using Dissolution apparatus (Lab India D8000) at 37 deg.
Buffers pH. 1.2, 4.5 and 6.8 were prepared as per the USP 36 Solutions/Buffer Solutions 1209.
About 500 mg of Apalutamide were added to the 100 mL buffer (pH 1.2, 4.5 and 6.8) in individual flasks to obtain saturated suspension and the suspension was stirred with 250 rpm for 24 hours. Suspension was observed though out stirring period. Samples were drawn at different intervals on completion of 15 mins, 1 hrs, 4 hrs and 24 hrs from each flask and filtered through 0.45μ PTFE filter; each solution was analyzed for Apalutamide content by liquid chromatography.

[2] = Bulk density and tapped (tap) density of powder; type: physicochemical; settings: as compared to form A of Apalutamide
Source text: Bulk density as used in the present application is meant the ratio between mass (weight) and bulk volume for the powder blend. Tapped (tap) density is the maximum packing density of a powder (or blend of powders) achieved under the influence of well defined, externally applied forces. The minimum packed volume thus achieved depends on a number of factors including particle size distribution, true density, particle shape and cohesiveness due to surface forces including moisture. Therefore, the tap density of a material can be used to predict both its flow properties and its compressibility. These two parameters are important in the overall tableting process—which requires that loose powders be compacted into a durable solid form with the correct mechanical strength, porosity and dissolution characteristics—and in capsule filling performance.

aqueous solubility [1] | bulk density [2] | tap density [2] | SMILES
higher aqueous solubility |  |  | CNC(=O)c1ccc(N2C(=S)N(c3cnc(C#N)c(C(F)(F)F)c3)C(=O)C23CCC3)cc1F [form T11, Apalutamide]
 | higher bulk density | higher tap density | CNC(=O)c1ccc(N2C(=S)N(c3cnc(C#N)c(C(F)(F)F)c3)C(=O)C23CCC3)cc1F [form T13, Apalutamide]
